Key:
[1] = target: T1, Sodium- and chloride-dependent glycine transporter 1 (Homo sapiens, UniProt P48067); assay: Inhibition of [3H]glycine uptake using CHO cells transfected with GlyT-1b transporter; type: cell-based
T1 sequence (P48067 whole entry): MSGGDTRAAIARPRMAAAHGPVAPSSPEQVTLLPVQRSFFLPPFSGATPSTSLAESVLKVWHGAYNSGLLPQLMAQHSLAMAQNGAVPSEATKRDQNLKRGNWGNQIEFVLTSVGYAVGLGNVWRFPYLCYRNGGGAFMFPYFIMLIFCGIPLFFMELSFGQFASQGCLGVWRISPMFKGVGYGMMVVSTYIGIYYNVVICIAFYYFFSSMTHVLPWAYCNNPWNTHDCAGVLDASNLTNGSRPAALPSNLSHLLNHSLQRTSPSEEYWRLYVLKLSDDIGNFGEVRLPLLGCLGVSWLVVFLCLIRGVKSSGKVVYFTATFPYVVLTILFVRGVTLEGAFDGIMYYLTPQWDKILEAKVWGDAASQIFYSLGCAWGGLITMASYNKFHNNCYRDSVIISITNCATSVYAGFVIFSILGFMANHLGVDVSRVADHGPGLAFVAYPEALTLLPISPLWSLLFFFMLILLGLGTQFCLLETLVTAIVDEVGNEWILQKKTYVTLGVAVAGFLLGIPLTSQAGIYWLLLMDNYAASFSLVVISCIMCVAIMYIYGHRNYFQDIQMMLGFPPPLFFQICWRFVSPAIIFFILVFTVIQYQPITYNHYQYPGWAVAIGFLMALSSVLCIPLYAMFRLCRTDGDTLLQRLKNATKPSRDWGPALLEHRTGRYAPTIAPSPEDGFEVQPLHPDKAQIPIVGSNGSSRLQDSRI

Rattus norvegicus [2] = species: Rattus norvegicus; assay: Inhibition of [3H]- dopamine uptake in rat brain; type: functional, organism-based
Glutamate NMDA receptor = assay: Binding affinity to NMDA glycine co-agonist site with [3H]-MDL- 105,519 as radioligand in rat brain membrane; type: cell membranes
[3] = target: 5-hydroxytryptamine receptor 2A (Rattus norvegicus, UniProt P14842); assay: Binding affinity of compound towards serotonin 5-hydroxytryptamine 2A receptor was determined
Chain of 5-hydroxytryptamine receptor 2A (P14842 whole entry): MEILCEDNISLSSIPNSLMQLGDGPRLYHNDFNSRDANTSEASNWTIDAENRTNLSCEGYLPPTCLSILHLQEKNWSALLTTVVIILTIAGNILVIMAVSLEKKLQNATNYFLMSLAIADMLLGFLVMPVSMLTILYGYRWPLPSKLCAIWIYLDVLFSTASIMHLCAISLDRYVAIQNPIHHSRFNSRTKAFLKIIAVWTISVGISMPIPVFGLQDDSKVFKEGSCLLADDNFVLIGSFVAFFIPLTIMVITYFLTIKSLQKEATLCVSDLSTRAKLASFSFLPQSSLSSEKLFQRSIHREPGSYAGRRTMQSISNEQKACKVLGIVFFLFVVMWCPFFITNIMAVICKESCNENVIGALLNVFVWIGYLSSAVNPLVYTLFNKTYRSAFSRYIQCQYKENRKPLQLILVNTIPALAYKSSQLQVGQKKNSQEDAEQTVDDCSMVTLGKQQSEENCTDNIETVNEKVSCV

Rattus norvegicus [4] = species: Rattus norvegicus; assay: Inhibition of [3H]- GABA uptake in rat brain; type: functional, organism-based
[5] = target: Beta-2 adrenergic receptor (Homo sapiens, UniProt P07550); assay: Binding affinity of compound towards Beta-2 adrenergic receptor was determined
Chain of Beta-2 adrenergic receptor (P07550 whole entry): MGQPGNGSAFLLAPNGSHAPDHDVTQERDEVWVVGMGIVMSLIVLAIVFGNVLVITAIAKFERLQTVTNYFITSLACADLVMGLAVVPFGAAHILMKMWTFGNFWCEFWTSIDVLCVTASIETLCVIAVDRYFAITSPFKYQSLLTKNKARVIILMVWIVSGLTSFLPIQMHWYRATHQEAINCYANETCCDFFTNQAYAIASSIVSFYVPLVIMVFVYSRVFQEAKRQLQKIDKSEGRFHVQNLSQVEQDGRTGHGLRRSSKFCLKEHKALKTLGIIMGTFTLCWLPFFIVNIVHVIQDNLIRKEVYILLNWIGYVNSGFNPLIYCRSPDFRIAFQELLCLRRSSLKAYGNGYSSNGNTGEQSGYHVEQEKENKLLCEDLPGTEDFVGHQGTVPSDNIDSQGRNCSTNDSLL

Rattus norvegicus [6] = species: Rattus norvegicus; assay: Inhibition of [3H]- serotonin uptake in rat brain; type: functional, organism-based
Rattus norvegicus [7] = species: Rattus norvegicus; assay: Inhibition of [3H]- noradrenaline uptake in rat brain; type: functional, organism-based
[8] = target: T2, 5-hydroxytryptamine receptor 2C (Rattus norvegicus, UniProt P08909); assay: Binding affinity of compound towards serotonin 5-hydroxytryptamine 2C receptor was determined
T2 sequence (P08909 whole entry): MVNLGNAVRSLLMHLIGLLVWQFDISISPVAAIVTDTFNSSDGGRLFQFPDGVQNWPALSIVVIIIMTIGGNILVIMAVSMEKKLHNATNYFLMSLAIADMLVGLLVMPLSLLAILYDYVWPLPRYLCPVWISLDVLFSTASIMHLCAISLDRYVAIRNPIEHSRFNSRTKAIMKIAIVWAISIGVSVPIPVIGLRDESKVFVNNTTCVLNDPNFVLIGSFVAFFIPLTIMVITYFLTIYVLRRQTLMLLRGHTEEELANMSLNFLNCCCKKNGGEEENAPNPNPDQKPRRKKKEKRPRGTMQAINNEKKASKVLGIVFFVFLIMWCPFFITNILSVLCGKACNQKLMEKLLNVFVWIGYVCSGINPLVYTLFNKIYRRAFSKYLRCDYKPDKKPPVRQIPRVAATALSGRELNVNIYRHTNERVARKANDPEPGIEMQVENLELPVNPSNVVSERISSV

[9] = target: Beta-1 adrenergic receptor (Homo sapiens, UniProt P08588); assay: Binding affinity of compound towards Beta-1 adrenergic receptor was determined
Chain of Beta-1 adrenergic receptor (P08588 whole entry): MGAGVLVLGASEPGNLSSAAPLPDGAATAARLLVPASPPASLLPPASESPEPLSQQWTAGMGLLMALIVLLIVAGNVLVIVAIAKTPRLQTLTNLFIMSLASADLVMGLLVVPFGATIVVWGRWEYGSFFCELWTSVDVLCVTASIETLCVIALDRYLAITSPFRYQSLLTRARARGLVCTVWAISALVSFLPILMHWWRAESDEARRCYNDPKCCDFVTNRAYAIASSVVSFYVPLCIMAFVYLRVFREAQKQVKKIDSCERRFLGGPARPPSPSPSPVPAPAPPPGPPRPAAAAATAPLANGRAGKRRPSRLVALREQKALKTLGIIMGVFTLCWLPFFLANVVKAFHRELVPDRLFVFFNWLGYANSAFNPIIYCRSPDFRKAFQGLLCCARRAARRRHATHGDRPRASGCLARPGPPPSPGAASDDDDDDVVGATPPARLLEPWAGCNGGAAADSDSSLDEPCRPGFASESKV

[10] = target: 5-hydroxytryptamine receptor 6 (Rattus norvegicus, UniProt P31388); assay: Binding affinity of compound towards serotonin 5-hydroxytryptamine 6 receptor was determined
Chain of 5-hydroxytryptamine receptor 6 (P31388 whole entry): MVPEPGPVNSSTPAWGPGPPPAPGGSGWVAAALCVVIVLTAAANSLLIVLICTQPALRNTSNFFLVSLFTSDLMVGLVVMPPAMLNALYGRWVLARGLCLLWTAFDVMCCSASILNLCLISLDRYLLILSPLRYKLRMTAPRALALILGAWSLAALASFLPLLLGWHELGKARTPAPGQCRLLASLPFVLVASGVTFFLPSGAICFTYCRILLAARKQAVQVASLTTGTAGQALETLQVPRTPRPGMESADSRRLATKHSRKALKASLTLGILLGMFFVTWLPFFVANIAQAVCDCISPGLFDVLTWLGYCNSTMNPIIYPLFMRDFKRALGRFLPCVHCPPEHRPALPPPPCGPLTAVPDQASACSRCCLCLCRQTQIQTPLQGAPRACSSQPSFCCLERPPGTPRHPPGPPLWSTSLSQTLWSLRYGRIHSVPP

[11] = target: T3, Alpha-1A adrenergic receptor (Homo sapiens, UniProt P35348); assay: Binding affinity of compound towards Binding affinity towards Alpha-1A adrenergic receptor was determined
T3 sequence (P35348 whole entry): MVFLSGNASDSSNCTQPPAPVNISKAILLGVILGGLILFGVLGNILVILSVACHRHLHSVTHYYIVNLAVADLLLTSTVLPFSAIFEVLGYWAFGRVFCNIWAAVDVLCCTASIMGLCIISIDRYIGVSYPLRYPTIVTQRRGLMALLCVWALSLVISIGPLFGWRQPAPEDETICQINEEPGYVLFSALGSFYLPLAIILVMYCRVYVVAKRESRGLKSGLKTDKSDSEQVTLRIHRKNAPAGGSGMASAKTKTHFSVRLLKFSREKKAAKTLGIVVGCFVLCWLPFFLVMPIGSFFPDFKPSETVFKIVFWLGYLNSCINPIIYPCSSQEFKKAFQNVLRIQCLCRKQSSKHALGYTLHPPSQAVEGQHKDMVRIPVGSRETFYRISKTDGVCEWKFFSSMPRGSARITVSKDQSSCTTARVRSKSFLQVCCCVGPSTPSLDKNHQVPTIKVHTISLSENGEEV

[12] = target: T4, Alpha-2C adrenergic receptor (Homo sapiens, UniProt P18825); assay: Binding affinity of compound towards Alpha-2C adrenergic receptor was determined
T4 sequence (P18825 whole entry): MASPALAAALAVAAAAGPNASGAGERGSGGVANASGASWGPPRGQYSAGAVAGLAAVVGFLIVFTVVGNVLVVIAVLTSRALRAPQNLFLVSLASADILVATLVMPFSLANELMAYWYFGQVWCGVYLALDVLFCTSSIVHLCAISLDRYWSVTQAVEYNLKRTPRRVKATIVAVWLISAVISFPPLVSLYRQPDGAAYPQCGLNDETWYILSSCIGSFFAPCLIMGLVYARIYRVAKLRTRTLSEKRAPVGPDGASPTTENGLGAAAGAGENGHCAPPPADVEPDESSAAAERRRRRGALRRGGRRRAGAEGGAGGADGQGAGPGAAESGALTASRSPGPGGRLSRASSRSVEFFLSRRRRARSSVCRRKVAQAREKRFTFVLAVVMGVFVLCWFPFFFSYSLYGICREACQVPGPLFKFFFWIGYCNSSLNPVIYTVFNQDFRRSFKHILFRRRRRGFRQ

[13] = target: 5-hydroxytryptamine receptor 7 (Rattus norvegicus, UniProt P32305); assay: Binding affinity of compound towards serotonin 5-hydroxytryptamine 7 receptor was determined
Chain of 5-hydroxytryptamine receptor 7 (P32305 whole entry): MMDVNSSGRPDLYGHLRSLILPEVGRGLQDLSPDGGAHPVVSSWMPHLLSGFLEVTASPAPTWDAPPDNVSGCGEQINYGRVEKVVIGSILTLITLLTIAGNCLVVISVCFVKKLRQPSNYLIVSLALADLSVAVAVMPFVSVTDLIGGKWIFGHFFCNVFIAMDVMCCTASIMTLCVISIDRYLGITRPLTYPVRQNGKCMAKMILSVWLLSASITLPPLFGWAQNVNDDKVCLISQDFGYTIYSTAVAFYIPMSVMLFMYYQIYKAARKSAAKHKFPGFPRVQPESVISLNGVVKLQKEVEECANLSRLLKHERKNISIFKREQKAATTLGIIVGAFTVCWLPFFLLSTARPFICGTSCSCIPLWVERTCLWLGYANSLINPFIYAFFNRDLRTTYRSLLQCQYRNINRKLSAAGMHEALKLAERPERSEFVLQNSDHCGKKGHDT

D(2) dopamine receptor = D(2) dopamine receptor (Rattus norvegicus, UniProt P61169); assay: Binding affinity of compound towards Dopamine receptor D2S was determined
Chain of D(2) dopamine receptor (P61169 whole entry): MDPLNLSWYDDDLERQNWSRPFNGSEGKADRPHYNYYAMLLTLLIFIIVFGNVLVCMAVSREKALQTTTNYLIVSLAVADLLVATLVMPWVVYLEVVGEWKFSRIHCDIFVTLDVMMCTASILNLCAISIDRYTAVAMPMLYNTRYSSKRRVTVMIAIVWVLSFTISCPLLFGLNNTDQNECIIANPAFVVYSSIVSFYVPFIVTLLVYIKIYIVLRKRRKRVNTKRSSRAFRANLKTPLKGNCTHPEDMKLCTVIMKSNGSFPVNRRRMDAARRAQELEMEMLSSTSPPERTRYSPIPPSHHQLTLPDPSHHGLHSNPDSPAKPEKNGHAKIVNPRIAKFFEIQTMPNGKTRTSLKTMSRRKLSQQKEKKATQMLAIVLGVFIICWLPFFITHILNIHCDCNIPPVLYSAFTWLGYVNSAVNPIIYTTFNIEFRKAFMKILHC

[14] = target: T5, 5-hydroxytryptamine receptor 1A (Rattus norvegicus, UniProt P19327); assay: Binding affinity of compound towards 5-hydroxytryptamine 1A receptor was determined
T5 sequence (P19327 whole entry): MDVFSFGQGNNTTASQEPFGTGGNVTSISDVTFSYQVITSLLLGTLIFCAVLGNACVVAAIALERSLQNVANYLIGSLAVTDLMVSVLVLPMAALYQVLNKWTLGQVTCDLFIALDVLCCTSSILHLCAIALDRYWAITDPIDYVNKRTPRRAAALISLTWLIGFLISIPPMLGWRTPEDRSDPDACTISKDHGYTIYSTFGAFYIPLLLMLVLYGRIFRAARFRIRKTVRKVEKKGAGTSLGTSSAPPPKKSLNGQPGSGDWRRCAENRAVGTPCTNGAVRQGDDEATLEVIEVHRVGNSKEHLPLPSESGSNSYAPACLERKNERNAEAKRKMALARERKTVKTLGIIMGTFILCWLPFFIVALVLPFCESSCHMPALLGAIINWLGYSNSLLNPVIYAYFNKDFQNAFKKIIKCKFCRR

D(4) dopamine receptor = target: T6, D(4) dopamine receptor (Rattus norvegicus, UniProt P30729); assay: Binding affinity of compound towards Dopamine receptor D4 was determined
T6 sequence (P30729 whole entry): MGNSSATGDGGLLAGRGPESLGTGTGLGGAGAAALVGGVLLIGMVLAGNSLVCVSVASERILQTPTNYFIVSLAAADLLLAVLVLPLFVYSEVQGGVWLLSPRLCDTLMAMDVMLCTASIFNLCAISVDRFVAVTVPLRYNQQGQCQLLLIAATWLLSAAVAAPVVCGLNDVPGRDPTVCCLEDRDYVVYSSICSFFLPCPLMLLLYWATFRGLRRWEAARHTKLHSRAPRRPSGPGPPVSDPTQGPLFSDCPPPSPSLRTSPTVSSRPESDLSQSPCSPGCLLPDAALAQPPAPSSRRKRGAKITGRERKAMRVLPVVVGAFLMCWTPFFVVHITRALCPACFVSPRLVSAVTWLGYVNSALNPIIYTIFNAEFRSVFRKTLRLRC

[15] = target: T7, Alpha-1B adrenergic receptor (Homo sapiens, UniProt P35368); assay: The compound was tested for the binding affinity towards Alpha-1B adrenergic receptor
T7 sequence (P35368 whole entry): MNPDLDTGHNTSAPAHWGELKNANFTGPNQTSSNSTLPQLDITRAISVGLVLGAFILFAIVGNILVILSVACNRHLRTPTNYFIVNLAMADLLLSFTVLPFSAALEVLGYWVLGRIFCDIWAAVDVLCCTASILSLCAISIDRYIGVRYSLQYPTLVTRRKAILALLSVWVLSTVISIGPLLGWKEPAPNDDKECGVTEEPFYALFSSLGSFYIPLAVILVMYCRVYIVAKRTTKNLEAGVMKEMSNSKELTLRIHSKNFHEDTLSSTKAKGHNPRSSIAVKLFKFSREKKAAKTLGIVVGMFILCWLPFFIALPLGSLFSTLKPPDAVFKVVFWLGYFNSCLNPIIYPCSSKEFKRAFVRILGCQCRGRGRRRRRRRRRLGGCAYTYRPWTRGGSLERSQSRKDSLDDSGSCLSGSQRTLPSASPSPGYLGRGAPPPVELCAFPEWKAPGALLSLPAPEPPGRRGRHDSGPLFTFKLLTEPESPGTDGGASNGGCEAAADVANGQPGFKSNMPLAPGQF

IC50 [1] [µM]	SMILES	further results
12.6	CN(CCC(Oc1ccccc1Cl)c1ccccc1)CC(=O)O (stereo not given)	–
2.51	Cc1ccc(OC(CCN(C)CC(=O)O)c2ccccc2)cc1 (stereo not given)	–
0.151	CN(CC[C@@H](Oc1ccc(-c2ccccc2)cc1)c1ccccc1)CC(=O)O	–
0.316	CN(CCC(Oc1ccc(C(F)(F)F)cc1)c1ccccc1)CC(=O)O (stereo not given)	–
0.501	CN(CCC(Oc1ccc(Cl)c(Cl)c1)c1ccccc1)CC(=O)O (stereo not given)	–
100	CN(CCC(Oc1ccc(S(C)(=O)=O)cc1)c1ccccc1)CC(=O)O (stereo not given)	–
3.98	COc1ccc(OC(CCN(C)CC(=O)O)c2ccccc2)cc1 (stereo not given)	–
11.7	CN(CC[C@H](Oc1ccc(C(C)(C)C)cc1)c1ccccc1)CC(=O)O	–
0.447	CN(CC[C@@H](Oc1ccc(C(C)(C)C)cc1)c1ccccc1)CC(=O)O	–
0.977	CN(CC[C@H](Oc1ccc(-c2ccccc2)cc1)c1ccccc1)CC(=O)O	–
20	COc1ccccc1OC(CCN(C)CC(=O)O)c1ccccc1 (stereo not given)	–
2.63	CN(CC[C@H](Oc1ccc(C(F)(F)F)cc1)c1ccccc1)CC(=O)O	–
1.26	CN(CCC(Oc1ccc(Cl)cc1)c1ccccc1)CC(=O)O (stereo not given)	–

The remaining lines, values behind:

SMILES	IC50 [1] [µM]	further results
CN(CCC(Oc1ccc(C(F)(F)F)cc1)c1ccc(F)cc1)CC(=O)O (stereo not given)	0.251	–
CN(CCC(Oc1cccc(C(F)(F)F)c1)c1ccccc1)CC(=O)O (stereo not given)	2.51	–
CN(CCC(Oc1ccc(C(F)(F)F)cc1)c1ccc(Cl)cc1)CC(=O)O (stereo not given)	0.1	–
COc1ccc(C(CCN(C)CC(=O)O)Oc2ccc(C(F)(F)F)cc2)cc1 (stereo not given)	0.501	–
CN(CC[C@@H](Oc1ccc(C(F)(F)F)cc1)c1ccccc1)CC(=O)[O-].[Li+]	0.126	IC50 (Rattus norvegicus [2]): > 100 µM; Log Ki (Glutamate NMDA receptor): > -4; Ki [3]: > 10 µM; IC50 (Rattus norvegicus [4]): > 100 µM; Ki [5]: > 10 µM; IC50 (Rattus norvegicus [6]): 50.1 µM; IC50 (Rattus norvegicus [7]): > 100 µM; Ki [8]: > 10 µM; Ki [9]: > 10 µM; Ki [10]: > 10 µM; Ki [11]: > 10 µM; Ki [12]: > 10 µM; Ki [13]: > 10 µM; Ki (D(2) dopamine receptor): > 10 µM; Ki [14]: > 10 µM; Ki (D(4) dopamine receptor): > 10 µM; Ki [15]: > 10 µM
CN(CCC(=O)O)CCC(Oc1ccc(C(F)(F)F)cc1)c1ccccc1 (stereo not given)	31.6	–
CN(CCCC(=O)O)CCC(Oc1ccc(C(F)(F)F)cc1)c1ccccc1 (stereo not given)	100	–
CN(CCC(Cc1ccc(C(F)(F)F)cc1)c1ccccc1)CC(=O)O (stereo not given)	1	–
CCN(CCC(Oc1ccc(C(F)(F)F)cc1)c1ccccc1)CC(=O)O (stereo not given)	5.01	–
CN(CCC(Oc1ccc(Cl)c(C(F)(F)F)c1)c1ccccc1)CC(=O)O (stereo not given)	0.398	–

Source: ChEMBL document CHEMBL1133889, “Discovery and SAR of org 24598-a selective glycine uptake inhibitor” (Bioorg Med Chem Lett, 2001)
